These are literature values, as cited in patent US20260091069A1, “TRANS[…] TRA[…] REGULATED ONCOLYTIC HERPES SIMPLEX VIRUS VECTORS” (VIROGIN BIOTECH CANADA LTD, priority 2021, published 2026).

The conditions of the series: clinical dose of Ganciclovir.

Consider `Nc1nc(O)c2ncn(COC(CO)CO)c2n1` [Ganciclovir], for which the Cmax in humans is 9000 ng/mL.
